Reference: US10308615B2, “Heterocyclic compounds as inhibitors of Vanin-1 enzyme” (Pfizer Inc., priority 2015, dated 2019)
pIC50: −log10 of the molar value.

Assays:
Assay type in all cases: biochemical
[1] = target: T1, human vanin-1 (Homo sapiens (Human), UniProt O95497); assay: Human Vanin-1 Enzyme Assay 2; conditions: 1 nM human vanin-1, 10 uM substrate, 45 min
Description: Human Vanin-1 Enzyme Assay 2.
(§1) The in vitro assay measures enzymatic cleavage of the fluorescently-labeled vanin substrate, pantetheine 7-amino-4-trifluoromethylcoumarin, by human vanin-1.
(§2) The vanin-1 protein was prepared in-house from a construct expressing the extracellular domain of human vanin-1 (GenBank ID NM_004666) preceded N-terminally by the honey bee melittin signal peptide, a GSG linker sequence, a His6X tag and a FLAG tag. The secreted, soluble enzyme was purified from the conditioned medium from a CHO cell line stably expressing the resulting protein. Enzyme purification was performed through sequential Ni NTA and size-exclusion chromatography steps.
(§3) On the day of the assay, dose response plates were prepared by diluting the inhibitors in DMSO at compound concentration 100-fold the final in-assay concentration. Concentration series were prepared by serially diluting in DMSO in a half-log series for a total of 11 data points. Intermediate compound plates containing compound in 10% DMSO were then created by diluting the compounds 10-fold in assay buffer consisting of 50 mM Tris-HCl pH=8.0, 50 mM KCl, 0.005% Brij-35 and 1.5 mM cysteamine. To begin the assay 3 μL were transferred from the intermediate compound plate to the assay plate.
A working solution of human vanin-1 was prepared by diluting the enzyme stock to 1.25 nM in assay buffer. Next, 24 μL of the vanin-1 working solution were transferred to the assay plate. The enzyme reaction was then initiated by the addition of 3 μL of 100 μM pantetheine 7-amino-4-trifluoromethylcoumarin prepared in assay buffer. The final concentrations in the assay were 1 nM human vanin-1 and 10 uM substrate. The final concentration of DMSO was 1%. The assay plates were incubated for 45 minutes and before they were read on a Spectramax M5 using a 405 nm excitation wavelength and a 505 nm emission wavelength for detection.

[2] = target: T1, human vanin-1; assay: Human Vanin-1 Enzyme Assay 1; conditions: 25 pM human vanin-1, 50 uM pantetheine 7-amino-4-trifluoromethylcoumarin, 30 min preincubation, 60 min
Description: Human Vanin-1 Enzyme Assay 1.
as §1, §2
The test inhibitors were solubilized in DMSO to a stock concentration of 30 mM. On the day of the assay, dose response plates were prepared by diluting the inhibitors in DMSO at compound concentration 200-fold the final in-assay concentration. Intermediate concentrations were prepared by diluting in DMSO in a four-fold series for a total of 11 data points.
To prepare a working solution of human vanin-1, the enzyme was diluted to 33.3 pM in the assay buffer consisting of 50 mM Tris-HCl pH=8.0, 50 mM KCl, 0.005% Brij-35 and […] cysteamine. To begin the assay 100 nL was transferred from the compound plate to the assay plate. Next, 15 μL of the vanin-1 working solution were transferred to the assay plate. The inhibitor and enzyme were incubated at room temperature for 30 minutes. The enzyme reaction was then initiated by the addition of 5 μL of 200 μM pantetheine 7-amino-4-trifluoromethylcoumarin prepared in assay buffer. The final concentrations in the assay were 25 pM human vanin-1 and 50 uM substrate. The final concentration of DMSO was 0.5%. The assay plates were incubated for 60 minutes and before they were read on a Perkin Elmer EnVision Model 2103 using a 405 nm excitation wavelength and a 510 nm emission wavelength for detection.

[3] = target: T1, human vanin-1; assay: Human Vanin-1 Enzyme Assay 3; conditions: 2 nM human vanin-1, 10 uM substrate, 15 min
Description: Human Vanin-1 Enzyme Assay 3.
as §1, §2
as §3, with “two-fold” for “half-log”
A working solution of human vanin-1 was prepared by diluting the enzyme stock to 2.5 nM in assay buffer. Next, 24 μL of the vanin-1 working solution were transferred to the assay plate. The enzyme reaction was then initiated by the addition of 3 μL of 100 μM pantetheine 7-amino-4-trifluoromethylcoumarin prepared in 5 uM acetic acid. The final concentrations in the assay were 2 nM human vanin-1 and 10 uM substrate. The final concentration of DMSO was 1%. The assay plates were incubated at room temperature for 15 minutes and before they were read on a Tecan Safire using a 405 nm excitation wavelength and a 505 nm emission wavelength for detection.

T1 sequence (O95497 22-491): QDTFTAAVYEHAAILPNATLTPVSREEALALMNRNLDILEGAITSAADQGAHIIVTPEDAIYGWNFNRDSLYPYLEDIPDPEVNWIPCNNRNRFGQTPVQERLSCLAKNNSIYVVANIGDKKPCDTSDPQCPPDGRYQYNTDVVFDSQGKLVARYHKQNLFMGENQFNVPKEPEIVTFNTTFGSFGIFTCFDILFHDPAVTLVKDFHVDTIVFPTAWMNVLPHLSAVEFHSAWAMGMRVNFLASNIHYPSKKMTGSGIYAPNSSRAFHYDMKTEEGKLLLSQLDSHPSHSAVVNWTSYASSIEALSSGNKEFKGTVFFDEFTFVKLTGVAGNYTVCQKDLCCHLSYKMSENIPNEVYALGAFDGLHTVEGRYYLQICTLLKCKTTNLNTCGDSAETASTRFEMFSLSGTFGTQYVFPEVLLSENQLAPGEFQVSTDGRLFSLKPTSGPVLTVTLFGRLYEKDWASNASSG

Row | Structure (SMILES) | pIC50 [1] | pIC50 [2] | pIC50 [3]
1 | CC(Nc1ncc(C(=O)c2cccc(C#N)c2)cn1)c1ccc(C(N)=O)cc1 (single isomer, unassigned; (+)) [Example 10, (+)-4-(1-{[5-(3-cyanobenzoyl)pyrimidin-2-yl]amino}ethyl)benzamide] | < 5.00 | < 4.70 | –
2 | CC(Nc1ncc(C(=O)c2cccc(C#N)c2)cn1)c1ccc(C(N)=O)cc1 (single isomer, unassigned; (-)) [Example 9, (−)-4-(1-{[5-(3-cyanobenzoyl)pyrimidin-2-yl]amino}ethyl)benzamide] | 7.38 | 7.99 | –
3 | N#Cc1cccc(C(=O)c2cnc(NCc3cnc(N)nc3)nc2)c1 [Example 4, 3-[(2-{[(2-aminopyrimidin-5-yl)methyl]amino}pyrimidin-5-yl)carbonyl]benzonitrile] | 7.68 | 7.65 | –
4 | N#Cc1cccc(C(=O)c2cnc(NC3(c4cnccn4)CC3)nc2)c1 [Example 5, 3-[(2-{[1-(pyrazin-2-yl)cyclopropyl]amino}pyrimidin-5-yl)carbonyl]benzonitrile] | 8.01 | 8.47 | –
5 | N#Cc1cccc(C(=O)c2cnc(NCc3ccc(N)nc3)nc2)c1 [Example 6, 3-[(2-{[(6-aminopyridin-3-yl)methyl]amino}pyrimidin-5-yl)carbonyl]benzonitrile] | 7.61 | 7.43 | –
6 | CC(Nc1ncc(C(=O)c2cccc(C#N)c2)cn1)c1cccnc1 (centres unmarked) [Example 7, 3-[(2-{[1-(pyridin-3-yl)ethyl]amino}pyrimidin-5-yl)carbonyl]benzonitrile] | 8.41 | – | –
7 | CC(Nc1ncc(C(=O)c2cccc(C#N)c2)cn1)c1ccc(C(N)=O)cc1 (centres unmarked) [Example 8, 4-(1-{[5-(3-cyanobenzoyl)pyrimidin-2-yl]amino}ethyl)benzamide] | 7.04 | – | –
8 | O=C(c1cnc(NC2(c3cncnc3)CC2)nc1)c1cccc(C(F)(F)F)c1 [Example 16, (2-{[1-(pyrimidin-5-yl)cyclopropyl]amino}pyrimidin-5-yl)[3-(trifluoromethyl)phenyl]methanone] | 8.59 | 8.77 | –
9 | CS(=O)(=O)c1cccc(C(=O)c2cnc(NC3(c4cncnc4)CC3)nc2)c1 [Example 17, [3-(methylsulfonyl)phenyl](2-{[1-(pyrimidin-5-yl)cyclopropyl]amino}pyrimidin-5-yl)methanone] | 8.74 | 9.10 | –
10 | COc1cccc(C(=O)c2cnc(NC3(c4cncnc4)CC3)nc2)c1 [Example 18, (3-methoxyphenyl)(2-{[1-(pyrimidin-5-yl)cyclopropyl]amino}pyrimidin-5-yl)methanone] | 7.91 | 7.58 | –
11 | CS(=O)(=O)c1cccc(C(=O)c2ccc(NCc3cncnc3)nc2)c1 [Example 19, [3-(methylsulfonyl)phenyl]{6-[(pyrimidin-5-ylmethyl)amino]pyridin-3-yl}methanone] | 7.54 | 5.84 | –
12 | CS(=O)(=O)c1cccc(C(=O)c2cnc(NCc3cncnc3)nc2)c1 [Example 20, [3-(methylsulfonyl)phenyl]{2-[(pyrimidin-5-ylmethyl)amino]pyrimidin-5-yl}methanone] | 7.77 | 8.03 | –
13 | CS(=O)(=O)c1cccc(C(=O)c2cnc(NCc3cccnn3)nc2)c1 [Example 21, [3-(methylsulfonyl)phenyl]{2-[(pyridazin-3-ylmethyl)amino]pyrimidin-5-yl}methanone] | 7.20 | – | –
14 | N#Cc1cccc(C(=O)c2cnc(NCc3cc[nH]c(=O)c3)nc2)c1 [Example 72, 3-[(2-{[(2-oxo-1,2-dihydropyridin-4-yl)methyl]amino}pyrimidin-5-yl)carbonyl] benzonitrile] | 7.06 | 6.73 | –

Further lines, results first:

Row | pIC50 [1] | pIC50 [2] | pIC50 [3] | Structure (SMILES)
15 | – | 5.77 | 6.27 | O=C(c1ccccc1)c1cnc(NCc2ccccc2)nc1 [Example 99, [2-(benzylamino)pyrimidin-5-yl](phenyl) methanone]
16 | – | 6.09 | 6.82 | O=C(c1ccccc1)c1cnc(NCc2ccccc2F)nc1 [Example 101, {2-[(2-fluorobenzyl)amino]pyrimidin-5-yl}(phenyl) methanone]
17 | – | 6.04 | 6.12 | NC(=O)c1ccc(CNc2ncc(C(=O)c3ccccc3)cn2)cn1 [Example 107, 5-{[(5-benzoylpyrimidin-2-yl)amino]methyl} pyridine-2-carboxamide]
18 | – | 5.40 | 7.44 | O=C(c1cnc(NCc2ccc(F)cc2)nc1)c1cc(F)cc(C(F)(F)F)c1 [Example 127, {2-[(4-fluorobenzyl)amino]pyrimidin-5-yl}[3-fluoro-5-(trifluoromethyl)phenyl]methanone]
19 | 7.91 | 8.00 | – | N#Cc1cccc(C(=O)c2cnc(NC3(c4ccccc4)CCC3)nc2)c1 [Example 129, 3-({2-[(1-phenylcyclobutyl)amino]pyrimidin-5-yl}carbonyl) benzonitrile]
20 | 6.54 | 6.32 | – | N#Cc1cc(F)cc(C(=O)c2cnc(NCc3cncnc3)nc2)c1 [Example 130, 3-fluoro-5-({2-[(pyrimidin-5-ylmethyl)amino]pyrimidin-5-yl}carbonyl) benzonitrile]
21 | 6.43 | 6.27 | – | N#Cc1ccc(F)c(C(=O)c2cnc(NCc3cncnc3)nc2)c1 [Example 131, 4-fluoro-3-({2-[(pyrimidin-5-ylmethyl)amino]pyrimidin-5-yl}carbonyl) benzonitrile]
22 | 7.01 | 6.90 | – | Cc1ccc(C(=O)c2cnc(NCc3cncnc3)nc2)cc1C#N [Example 132, 2-methyl-5-({2-[(pyrimidin-5-ylmethyl)amino]pyrimidin-5-yl}carbonyl) benzonitrile]
23 | 7.81 | – | – | CC(Nc1ncc(C(=O)c2cccc(C#N)c2)cn1)c1cncnc1 (centres unmarked) [Example 133, 3-[(2-{[1-(pyrimidin-5-yl)ethyl]amino}pyrimidin-5-yl)carbonyl] benzonitrile]
24 | 7.50 | – | – | O=C(c1ccc(NCc2cncnc2)nc1)c1cccc(C(F)(F)F)c1 [Example 139, {6-[(pyrimidin-5-ylmethyl)amino]pyridin-3-yl}[3-(trifluoromethyl)phenyl]methanone]
25 | 6.55 | – | – | O=C(c1cnc(NCc2cncnc2)nc1)c1ccnc(C(F)(F)F)c1 [Example 141, {2-[(pyrimidin-5-ylmethyl)amino]pyrimidin-5-yl}[2-(trifluoromethyl)pyridin-4-yl]methanone]
26 | – | < 4.70 | < 5.95 | O=C(c1cnc(OCc2ccccc2)nc1)c1cccc(C(F)(F)F)c1 [Example 155, [2-(benzyloxy)pyrimidin-5-yl][3-(trifluoromethyl)phenyl]methanone]
27 | – | < 4.70 | < 5.95 | O=C(c1cnc(OCc2ccc(F)cc2F)nc1)c1cccc(C(F)(F)F)c1 [Example 156, {2-[(2,4-difluorobenzyl)oxy]pyrimidin-5-yl}[3-(trifluoromethyl)phenyl]methanone]
28 | – | 4.92 | 5.16 | CCN1CCCC1CNc1ncc(C(=O)c2cccc(C(F)(F)F)c2)cn1 (centres unmarked) [Example 165, (2-{[(1-ethylpyrrolidin-2-yl)methyl]amino}pyrimidin-5-yl)[3-(trifluoromethyl)phenyl]methanone]
